Data reported in patent US20260263593A1, “ALLERGY ANTIGEN AND EPITOPE THEREOF” (HOYU CO., LTD., priority 2018, published 2026).

Tested on: IgE antibody present in the serum of a shrimp-allergic patient
Assay: Epitope mapping (1): array of overlapping 15-amino-acid peptides, chemiluminescence
Format: binding, human
Details: 15-amino-acid peptide array; serum of 37 patients; difference from N2nd value of 5 non-shrimp-allergic subjects at least 35,000
Experimental: Epitope mapping was carried out using a library of overlapping peptides (length: 15 amino acids) corresponding to the amino acid sequences identified as allergy components of shrimp and the amino acid sequence of arginine kinase. Specifically, the library of overlapping peptides was prepared on the basis of the amino acid sequences of SEQ ID NOs: 117, 141, 146, 2, 45, 87, 276, 161, 230, 179, 362, 381, 399, 421, 455, 481, 486, 520, 541, 300 and 306, and arginine kinase.
The peptides to be synthesized were shifted by 10 amino acids.
For preparation of peptide arrays, the Intavis CelluSpots™ technique was used. Specifically, the peptide arrays were prepared by the following procedure: (1) synthesizing peptides of interest on amino-modified cellulose disks using an automated chemical synthesis apparatus (Intavis MultiPep RS), (2) dissolving the amino-modified cellulose disks to obtain a cellulose-bound peptide solution, and (3) spotting the cellulose-bound peptides onto coated glass slides. The details of each procedure are as described below.
Peptide synthesis was carried out in incremental steps through 9-fluorenylmethoxycarbonyl (Fmoc) chemical reaction on amino-modified cellulose disks in 384-well synthesis plates. Specifically, amino acids in which a Fmoc group is bonded to an amino group were activated in a solution of N,N′-diisopropylcarbodiimide (DIC) and 1-hydroxybenzotriazole (HOBt) in dimethylformamide (DMF) and added dropwise to the cellulose disks so that the Fmoc group-bound amino acids were bound to the amino groups on the cellulose disks (coupling). Unreacted amino groups were capped with acetic anhydride and washed with DMF. Furthermore, the Fmoc groups were eliminated from the amino groups of the amino acids bound to the amino groups on the cellulose disks by treatment with piperidine and washing with DMF. The amino acids bound to the amino groups on the cellulose disks were repetitively subjected to the coupling, the capping, and the Fmoc group elimination described above to elongate the amino terminus for peptide synthesis.
The peptides-bound cellulose disks of interest obtained above in the subsection titled “(1) Synthesis of peptide” were transferred to 96-well plates and treated with a side chain deprotection mixed solution of trifluoroacetic acid (TFA), dichloromethane, triisopropylsilane (TIPS), and water for deprotection of amino acid side chains. Then, the deprotected cellulose-bound peptides were dissolved in a mixed solution of TFA, trifluoromethanesulfonic acid (TFMSA), TIPS, and water and precipitated in tetrabutyl methyl ether (TBME), and the precipitate was resuspended in dimethyl sulfoxide (DMSO) and mixed with a mixed solution of NaCl, sodium citrate, and water to obtain a peptide solution for slide spotting.
The peptide solution for slide spotting obtained above in the subsection titled “(2) Dissolution of amino-modified cellulose disk” was spotted onto Intavis CelluSpots™ slides using Intavis Slide Spotting Robot, and the slides were dried to prepare peptide arrays.
The presence or absence of binding, to each peptide fragment, of an IgE antibody present in the serum of a shrimp-allergic patient was measured through antigen-antibody reaction using the peptide arrays. […]

Row | Substance | Peptide bound to an IgE antibody in serum in a patient-specific manner
1 | E37: common 15-residue IgE-binding epitope sequence of polypeptide (E37), myosin heavy chain type 1-derived (IMHQLTCNGVLEGIR; VAR_SEQ 1..15 epitope) [Epitope E37] | bound to an IgE antibody in serum in a patient-specific manner
2 | E42: common 15-residue IgE-binding epitope sequence of polypeptide (E42), myosin heavy chain type 1-derived (QLEDTKKMVDDESRE; VAR_SEQ 1..15 epitope) [Epitope E42] | bound to an IgE antibody in serum in a patient-specific manner
3 | E3: common 15-residue IgE-binding epitope sequence of polypeptide (E3), myosin heavy chain type 1-derived (GYKDQLANLMKTLNA; VAR_SEQ 1..15 epitope) [Epitope E3] | bound to an IgE antibody in serum in a patient-specific manner
4 | E40: common 15-residue IgE-binding epitope sequence of polypeptide (E40), myosin heavy chain type 1-derived (EISHQDEIINKVNKE; VAR_SEQ 1..15 epitope) [Epitope E40] | bound to an IgE antibody in serum in a patient-specific manner
5 | E22: common 15-residue IgE-binding epitope sequence of polypeptide (E22), cyclophilin A-derived (VMELRADVVPKTAEN; VAR_SEQ 1..15 epitope) [Epitope E22] | bound to an IgE antibody in serum in a patient-specific manner
6 | E31: common 15-residue IgE-binding epitope sequence of polypeptide (E31), myosin heavy chain type 1-derived (ESRGRATLLGKFRNL; VAR_SEQ 1..15 epitope) [Epitope E31] | bound to an IgE antibody in serum in a patient-specific manner
7 | E41: common 15-residue IgE-binding epitope sequence of polypeptide (E41), myosin heavy chain type 1-derived (MTQETVADIERQHKD; VAR_SEQ 1..15 epitope) [Epitope E41] | bound to an IgE antibody in serum in a patient-specific manner
8 | E34: common 15-residue IgE-binding epitope sequence of polypeptide (E34), myosin heavy chain type 1-derived (VQVNPPKYEKCEDVS; VAR_SEQ 1..15 epitope) [Epitope E34] | bound to an IgE antibody in serum in a patient-specific manner
9 | E36: common 15-residue IgE-binding epitope sequence of polypeptide (E36), myosin heavy chain type 1-derived (GNMKFKQRGREEQAE; VAR_SEQ 1..15 epitope) [Epitope E36] | bound to an IgE antibody in serum in a patient-specific manner
10 | E25: common 15-residue IgE-binding epitope sequence of polypeptide (E25), arginine kinase-derived (VNVDPEGKFVISTRV; VAR_SEQ 1..15 epitope) [Epitope E25] | bound to an IgE antibody in serum in a patient-specific manner
11 | E26: common 15-residue IgE-binding epitope sequence of polypeptide (E26), myosin heavy chain type 1-derived (PDPDPTEYLFISREQ; VAR_SEQ 1..15 epitope) [Epitope E26] | bound to an IgE antibody in serum in a patient-specific manner
12 | E28: common 15-residue IgE-binding epitope sequence of polypeptide (E28), myosin heavy chain type 1-derived (RGYHIFYQLMCDQID; VAR_SEQ 1..15 epitope) [Epitope E28] | bound to an IgE antibody in serum in a patient-specific manner
13 | E35: common 15-residue IgE-binding epitope sequence of polypeptide (E35), myosin heavy chain type 1-derived (ERGYHIFYQMMSDQV; VAR_SEQ 1..15 epitope) [Epitope E35] | bound to an IgE antibody in serum in a patient-specific manner
14 | E6: common 15-residue IgE-binding epitope sequence of polypeptide (E6), myosin heavy chain type 2-derived (KDHQIRNINDEISHQ; VAR_SEQ 1..15 epitope) [Epitope E6] | bound to an IgE antibody in serum in a patient-specific manner
15 | E18: common 15-residue IgE-binding epitope sequence of polypeptide (E18), phosphopyruvate hydratase-derived (NKLAMQEFMILPTGA; VAR_SEQ 1..15 epitope) [Epitope E18] | bound to an IgE antibody in serum in a patient-specific manner
16 | E4: common 15-residue IgE-binding epitope sequence of polypeptide (E4), myosin heavy chain type 1-derived (HGELEESRTLLEQSD; VAR_SEQ 1..15 epitope) [Epitope E4] | bound to an IgE antibody in serum in a patient-specific manner
17 | E14: common 15-residue IgE-binding epitope sequence of polypeptide (E14), hemocyanin subunit L1-derived (ERGIDVLGDVIESSL; VAR_SEQ 1..15 epitope) [Epitope E14] | bound to an IgE antibody in serum in a patient-specific manner
18 | E46: common 15-residue IgE-binding epitope sequence of polypeptide (E46), phosphopyruvate hydratase-derived (TGVHEALEMRDGDKS; VAR_SEQ 1..15 epitope) [Epitope E46] | bound to an IgE antibody in serum in a patient-specific manner
19 | E47: common 15-residue IgE-binding epitope sequence of polypeptide (E47), phosphopyruvate hydratase-derived (HLKAVIKGRFGLDAT; VAR_SEQ 1..15 epitope) [Epitope E47] | bound to an IgE antibody in serum in a patient-specific manner
20 | E20: common 15-residue IgE-binding epitope sequence of polypeptide (E20), mitochondrial ATP synthase subunit alpha precursor-derived (PESDAKLKQIVTDFL; VAR_SEQ 1..15 epitope) [Epitope E20] | bound to an IgE antibody in serum in a patient-specific manner
21 | E39: common 15-residue IgE-binding epitope sequence of polypeptide (E39), myosin heavy chain type 1-derived (VQKTNQDKATKDHQI; VAR_SEQ 1..15 epitope) [Epitope E39] | bound to an IgE antibody in serum in a patient-specific manner
22 | E49: common 15-residue IgE-binding epitope sequence of polypeptide (E49), troponin I-derived (RKKKLRLLLRKKAAE; VAR_SEQ 1..15 epitope) [Epitope E49] | bound to an IgE antibody in serum in a patient-specific manner
23 | E38: common 15-residue IgE-binding epitope sequence of polypeptide (E38), myosin heavy chain type 1-derived (LDKELYRCGKTKVFF; VAR_SEQ 1..15 epitope) [Epitope E38] | bound to an IgE antibody in serum in a patient-specific manner
